Where no end group is shown, it is not given here.
Columns and labels:
[1] = biological target: T1, RNase A (Bos taurus, UniProt P61823); experiment: RNase activity test kit, modified Taq-man RNA probe analysis (ab273299); format: biochemical; parameters: purchased Abcam ab273299; conditions: for inhibition at 1 µM: inhibitor 1 μM, after 60 minutes, positive control (no inhibitor) = 100%, read-out: relative inhibition level / reduction of RNase A activity; for RNase A activity reduced by: summary paragraph, peptide 1 μM, versus non-inhibitory condition (100%); for IC50: synthetic peptides, RNA probe kit, linear regression
T1 sequence (P61823 27-150): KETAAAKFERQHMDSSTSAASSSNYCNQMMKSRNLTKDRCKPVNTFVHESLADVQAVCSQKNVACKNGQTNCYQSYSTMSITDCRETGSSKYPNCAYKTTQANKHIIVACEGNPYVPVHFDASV
Procedure: The activity of RNase A, which degrades RNA, was evaluated using specially designed RNA probes. This RNase A analysis was performed using a commercial RNase activity test kit based on a modified Taq-man probe analysis (ab273299) from Abcam (Cambridge, UK). To compare inhibitory activity, three synthetic peptides (peptide-1, peptide-2, peptide-3) and three expressed Fv-antibodies (Fv-1, Fv-2, and Fv-3) were compared using two types of commercially available RNase inhibitors from Biofact™ (Daejeon, South Korea) and two types of RNaseOUT™ from Thermofisher (USA). The probes for the RNase inhibition analysis contained RNA probes with fluorescent dyes and quenching materials at each end of the RNA sequence. […] To estimate the RNase A inhibitory activity by the three synthesized peptides, each peptide was treated at a concentration of 1 μM using the analysis kit, and RNase activity was measured. The positive control was prepared to have an RNase reaction without an inhibitor, and the negative control was prepared to have an RNase reaction without the RNA probe. […] The RNase A inhibitory activity of the three synthesized peptides was analyzed after treating each peptide at a concentration range of 100 μM to 1 μM in the assay kit. […] The RNase A inhibitory activity of the three expressed Fv-antibodies was analyzed after treating each peptide at a concentration range of 100 μM to 1 μM in the analysis kit.
The activity of RNase A, which degrades RNA, was evaluated using specially designed RNA probes. This RNase A analysis was performed using a commercial RNase activity test kit based on a modified Taq-man probe analysis (ab273299) from Abcam (Cambridge, UK). For the comparison of inhibitory activity, three synthetic peptides (Peptide-1, Peptide-2, Peptide-3) and three expressed Fv-antibodies (Fv-1, Fv-2, and Fv-3) were compared using two types of commercially available RNase inhibitors from Biofact™ (Daejeon, South Korea) and two types of RNaseOUT™ from Thermofisher (USA). The probes for the RNase inhibition analysis contain RNA probes with fluorescent dyes and fluorescent quenchers at each end of the RNA nucleotide sequence.
To estimate the RNase A inhibitory activity of the three synthesized peptides, each peptide was treated at a concentration of 1 μM using an assay kit, and the RNase activity was evaluated. The positive control was prepared to have an RNase reaction without the inhibitor, while the negative control was prepared to have an RNase reaction without the RNA probe.
The RNase A inhibitory activity of the three synthesized peptides was analyzed after treating each peptide at a concentration range of 100 μM to 1 μM with the RNase A from the assay kit.

[2] = biological target: T1, RNase A; experiment: SPR biosensor binding analysis with immobilized RNase A; parameters: Ribonuclease A (Type II-A) from bovine pancreas; purchased Sigma-Aldrich Korea; host or cells: bovine pancreas; species or system bovine; conditions: synthetic peptides, 0.37-10 μM; RNase A immobilized on Au chip; read-out: affinity constant (KD)
Procedure: Binding analysis of the expressed FV antibody and synthesized peptides against RNase A was performed using an SPR (Surface Plasmon Resonance) biosensor from I-Cluebio (Seongnam, Korea). RNase A was immobilized on the gold surface of the SPR chip used in the SPR biosensor to conduct the binding analysis. For the manufacture of the SPR chip, a 2 nm thick titanium adhesive layer and a 48 nm thick gold surface were consecutively sputter-coated onto BK-7 glass (1×1 cm^2). […] To analyze the binding of the expressed Fv antibody to RNase A, Fv antibodies in the concentration range of 0.37-100 nM were reacted using PBS buffer as the […] through association (10 minutes), equilibrium (5 minutes), and dissociation (10 minutes) steps. The washing buffer and total SPR measurements were performed at a flow rate of 15 μL/min. For the binding analysis of the synthesized peptides against RNase A, peptides in the concentration range of 0.37-100 nM were reacted using PBS buffer as the washing buffer through association (10 minutes), equilibrium (5 minutes), and dissociation (10 minutes) steps, and total SPR measurements were conducted at a flow rate of 15 μL/min.
Using the screened CDR3 amino acid sequences, the CDR3 regions of the screened Fv antibodies were synthesized as peptides, and the amino acid sequences were determined from the nucleotide sequences of the CDR3 regions as summarized in Table 2. These synthetic peptides (Peptide-1, Peptide-2, Peptide-3) and Fv antibodies (Fv-1, Fv-2, Fv-3) were identical to the amino acid sequences of the CDR3 regions of the screened clones. […] The SPR signal was plotted according to the concentration of the synthetic peptides, and the affinity constants (KD) of these synthetic peptides were calculated through a fitting process. […]
Using the screened CDR3 amino acid sequences, the CDR3 regions of the screened Fv antibodies were synthesized as peptides, and the amino acid sequences were determined from the nucleotide sequences of the CDR3 regions as summarized in Table 7. […]

Sequence	inhibition at 1 µM [1] [%]	RNase A activity reduced by [1] [%]	IC50 [1] [nM]	Kd [2] [nM]
CGPDSDVMTDF [Peptide-1]	54.4	54.4	8100	1300 ± 100
YGPVGRVKRDD [Peptide-2]	53.2	53.2	3600	1300 ± 300
DGTAKKSRKDD [Peptide-3]	50.3	50.3	400	3700 ± 1100
